{
  "source": "patent US5494895A",
  "about": "“Scorpion peptide margatoxin with immunosuppressant activity” (Merck & Co., Inc., priority 1993, dated 1996)",
  "key": {"[1]": {"biological_target": "T1, Kv 1.3 of human T lymphocytes (Homo sapiens, UniProt P22001)", "T1 construct": "endogenous in cells; host or cells: purified human peripheral blood T lymphocytes", "T1 sequence (P22001 whole entry)": "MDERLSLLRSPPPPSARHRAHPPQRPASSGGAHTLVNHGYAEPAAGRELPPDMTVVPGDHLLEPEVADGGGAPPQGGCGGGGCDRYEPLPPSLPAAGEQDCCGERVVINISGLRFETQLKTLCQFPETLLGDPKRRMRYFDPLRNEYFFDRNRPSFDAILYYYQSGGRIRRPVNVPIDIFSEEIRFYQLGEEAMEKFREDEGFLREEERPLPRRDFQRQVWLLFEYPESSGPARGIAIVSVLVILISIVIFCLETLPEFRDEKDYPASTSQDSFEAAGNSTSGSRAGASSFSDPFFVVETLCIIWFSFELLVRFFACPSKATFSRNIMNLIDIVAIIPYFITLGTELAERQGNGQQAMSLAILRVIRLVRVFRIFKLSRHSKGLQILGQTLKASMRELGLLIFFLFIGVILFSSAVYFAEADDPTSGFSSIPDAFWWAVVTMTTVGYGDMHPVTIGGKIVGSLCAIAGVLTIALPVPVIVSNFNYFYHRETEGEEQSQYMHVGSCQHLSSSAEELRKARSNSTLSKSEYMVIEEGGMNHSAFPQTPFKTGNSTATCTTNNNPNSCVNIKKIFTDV", "experiment": "[125I]ChTX binding to human T cells", "protocol": "(§1) In addition to being tested for competition for [^125 I]ChTX binding to rat brain and bovine aortic smooth muscle, MgTX was evaluated for its effects on [^125 I]ChTX binding to human T lymphocytes and to plasma membranes prepared from Jurkat cells, a human T-cell leukemia line. MgTX competition for [^125 I]ChTX binding to human T cells was performed as described by Lin, et al., J. Exp. Med. 177, 637-645, 1993. Binding experiments using monocyte-depleted, E-rosetted human T cells were carried out in isotonic sucrose with 5 mM KCl, 5 mM NaCl, 6 mM glucose and 10 mM HEPES, pH 8.0 until equilibrium was achieved. The procedure for binding to plasma membranes from Jurkat Cells is similar except that the binding solution was 3 mM KCl, 7 mM NaCl, 10 mM HEPES, pH 8.0. Free ligand was removed from bound by filtration through Whatman GF/C glass fiber filters (pretreated with 0.5% polyethylenimine). […] Hill coefficients were 2 in both cases."}, "Kv 1.3": {"biological_target": "T2, Kv 1.3 (Rattus norvegicus, UniProt P15384)", "T2 construct": "from tissue; host or cells: rat brain synaptic plasma membrane vesicles", "T2 sequence (P15384 whole entry)": "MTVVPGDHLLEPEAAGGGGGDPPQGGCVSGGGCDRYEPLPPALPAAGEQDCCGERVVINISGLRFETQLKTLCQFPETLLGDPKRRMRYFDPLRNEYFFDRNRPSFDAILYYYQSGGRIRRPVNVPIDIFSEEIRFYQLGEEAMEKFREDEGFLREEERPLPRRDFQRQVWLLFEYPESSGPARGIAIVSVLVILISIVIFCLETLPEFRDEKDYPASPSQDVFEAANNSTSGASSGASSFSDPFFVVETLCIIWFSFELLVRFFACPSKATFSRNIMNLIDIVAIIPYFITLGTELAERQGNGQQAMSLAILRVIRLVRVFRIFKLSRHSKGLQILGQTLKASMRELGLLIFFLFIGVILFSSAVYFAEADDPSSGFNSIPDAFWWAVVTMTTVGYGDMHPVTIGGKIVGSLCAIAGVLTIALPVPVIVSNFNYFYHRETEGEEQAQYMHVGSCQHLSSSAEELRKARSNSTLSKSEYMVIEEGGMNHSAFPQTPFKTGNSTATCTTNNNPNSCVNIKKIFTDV", "experiment": "[125I]ChTX binding to rat brain synaptic plasma membrane vesicles", "settings": "low ionic strength (50 mM NaCl, 20 mM Tris-HCl, pH 7.4)", "protocol": "The potency of MgTX as an inhibitor of [^125 I]ChTX binding to Kv 1.3 was evaluated. The binding of [^125 I]ChTX to either rat brain synaptic plasma membrane vesicles (Kv 1.3 channel; Vazquez et al., J. Biol. Chem. 265, 15564, 1990) or bovine aortic smooth muscle sarcolemmal membranes (Maxi-K channel; Vazquez et al., J. Biol. Chem. 264, 20402, 1989) was determined as described. Briefly, membrane vesicles were incubated with [^125 I]ChTX in the presence or absence of other added agents, until equilibrium was achieved. Separation of bound from free ligand was accomplished by filtration through GF/C glass fiber filters (WHATMAN) that had been presoaked in 0.5% polyethyleneimine. Nonspecific binding was determined in the presence of 10 nM unlabeled ChTX. Data from saturation experiments were analyzed in a Scatchard representation to determine Kd and Bmax values. Triplicate samples were obtained for each experimental point and the data were averaged. The standard deviation of the mean was typically less than 2%. […] As an indication of selectivity, MgTX had no effect on [^125 I]ChTX binding to the Maxi-K channel in smooth muscle membranes at concentrations up to 10 nM."}, "Shaker-H4": {"biological_target": "T3, Shaker-H4 (Drosophila melanogaster, UniProt P08510)", "T3 construct": "expressed in transfected cells; host or cells: Xenopus oocytes injected with RNA transcribed in vitro from the cDNA clone", "T3 sequence (P08510 whole entry)": "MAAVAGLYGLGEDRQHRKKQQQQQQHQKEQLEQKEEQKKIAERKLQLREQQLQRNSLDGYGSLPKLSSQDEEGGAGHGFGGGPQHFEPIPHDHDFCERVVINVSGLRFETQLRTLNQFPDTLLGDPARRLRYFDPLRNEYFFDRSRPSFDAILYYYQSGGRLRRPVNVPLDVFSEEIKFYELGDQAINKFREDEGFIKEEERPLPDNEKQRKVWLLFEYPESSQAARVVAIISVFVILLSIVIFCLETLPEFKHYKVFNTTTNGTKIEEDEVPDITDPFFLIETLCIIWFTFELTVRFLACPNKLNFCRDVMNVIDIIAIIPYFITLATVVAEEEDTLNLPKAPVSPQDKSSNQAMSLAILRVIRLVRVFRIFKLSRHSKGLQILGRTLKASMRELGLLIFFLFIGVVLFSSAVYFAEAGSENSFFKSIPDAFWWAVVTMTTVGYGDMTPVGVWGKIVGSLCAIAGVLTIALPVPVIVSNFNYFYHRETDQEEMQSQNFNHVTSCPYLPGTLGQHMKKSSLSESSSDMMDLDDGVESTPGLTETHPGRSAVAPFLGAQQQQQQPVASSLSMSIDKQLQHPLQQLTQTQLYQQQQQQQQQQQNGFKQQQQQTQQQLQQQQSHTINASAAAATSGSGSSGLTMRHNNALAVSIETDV", "experiment": "Two-electrode voltage clamp of Xenopus oocytes expressing Shaker-H4", "format": "cell-based", "protocol": "Ionic currents were also recorded from Xenopus oocytes that had been injected with RNA transcribed in vitro from one or another of the following K^+ channel cDNA clones. Kv 1 (rat Kv 1.5), rat or human Kv 3 (rat Kv 1.3; human Kv 1.3), Kv 4 (rat Kv 3.1 ), rat ISK, Kv 2 (rat Kv 1.6) or Drosophila Shaker-H4. The names of the clones are listed as originally published, with the appropriate parenthetical designation according to the unified gene nomenclature proposed by Chandy. Shaker-H4 is a splice variant from the original Drosophila Shaker K^+ channel gene. Kv 1.3 is the ChTX-sensitive delayed rectifier current found in rat and human T lymphocytes (data from rat and human clones were indistinguishable and were combined) and it is a member of the Shaker family. Kv 1.5 is a channel cloned from rat (Swanson et al., Neuron, 4, 929, 1990) and is another member of the Shaker family. The Kv 1.5 transcript has been detected in pancreatic β cells as described in Philipson, et al., Proc. Natl. Acad. Sci. U.S.A. 88, 53, 1991. […] The ISK transcript has been detected in lymphocytes (Attali et al., J. Biol. Chem,. 267, 8650, 1992), but no evidence of the IKs current has been found in those cells.\nMethods for oocyte isolation and micro-injection were previously described in Goldin, Meth. […] Currents expressed in oocytes were measured using a DAGAN model CA-1 two-electrode voltage clamp. […]"}, "[2]": {"biological_target": "T4, Kv 1.3 in plasma membranes from Jurkat cells (Homo sapiens, UniProt P22001)", "T4 construct": "plasma membranes prepared from Jurkat cells, a human T-cell leukemia line; endogenous in cells; host or cells: Jurkat cells (plasma membranes)", "T4 sequence (P22001 whole entry)": "as the sequence (P22001 whole entry) above", "experiment": "[125I]ChTX binding to plasma membranes from Jurkat cells", "protocol": "as §1"}, "human T cells": {"system": "human T cells", "settings": "cited from earlier work"}},
  "note": "Peptide text beside a SMILES is read from it.",
  "data": [
    {"smiles": "CC[C@H](C)[C@H](NC(=O)[C@@H](N)[C@@H](C)O)C(=O)N[C@H](C(=O)N[C@@H](CC(N)=O)C(=O)N[C@H](C(=O)N[C@@H](CCCCN)C(=O)N[C@H]1CSSC[C@@H]2NC(=O)[C@H](CCCCN)NC(=O)[C@H](C)NC(=O)CNC(=O)[C@H](C)NC(=O)[C@H](CO)NC(=O)[C@H](CCC(N)=O)NC(=O)CNC(=O)[C@H](Cc3ccccc3)NC(=O)[C@H](CCC(N)=O)NC(=O)[C@H](C)NC(=O)[C@H](CCCCN)NC(=O)[C@@H]3CSSC[C@@H](C(=O)N[C@@H](Cc4ccc(O)cc4)C(=O)N4CCC[C@H]4C(=O)N[C@@H](Cc4c[nH]cn4)C(=O)O)NC(=O)[C@H](CCCCN)NC(=O)[C@H](CSSC[C@H](NC(=O)[C@H](CCC(N)=O)NC(=O)[C@H](CCCCN)NC(=O)[C@@H]4CCCN4C(=O)[C@H](CO)NC(=O)[C@H]([C@@H](C)O)NC1=O)C(=O)N[C@@H](CC(C)C)C(=O)N1CCC[C@H]1C(=O)N1CCC[C@H]1C(=O)N3)NC(=O)[C@H](CCCCN)NC(=O)CNC(=O)[C@H](CC(N)=O)NC(=O)[C@H](CCSC)NC2=O)C(C)C)[C@@H](C)CC", "note": "[MgTX, Margatoxin] (HELM PEPTIDE1{T.I.I.N.V.K.C.T.S.P.K.Q.C.L.P.P.C.K.A.Q.F.G.Q.S.A.G.A.K.C.M.N.G.K.C.K.C.Y.P.H}$PEPTIDE1,PEPTIDE1,7:R3-29:R3|PEPTIDE1,PEPTIDE1,13:R3-34:R3|PEPTIDE1,PEPTIDE1,17:R3-36:R3$$$V2.0; N-terminus and C-terminus assumed; bridges inferred)", "values": [
      {"measurement": "Hill coefficient", "setting": "[1]", "result": 2},
      {"measurement": "IC50", "setting": "[1]; isotonic sucrose, pH 8.0, read-out: IC50 for inhibition of [125I]ChTX binding", "result": 0.0014, "unit": "nM"},
      {"measurement": "Hill coefficient of inhibition of [125I]ChTX binding to brain membranes", "setting": "Kv 1.3", "result": 1.7},
      {"measurement": "IC50", "setting": "Kv 1.3; read-out: IC50 for inhibition of [125I]ChTX binding to brain membranes", "result": 0.036, "unit": "nM"},
      {"measurement": "IC50", "setting": "Shaker-H4", "result": 100, "unit": "nM"},
      {"measurement": "Hill coefficient", "setting": "[2]", "result": 2},
      {"measurement": "IC50", "setting": "[2]; pH 8.0, read-out: IC50 for inhibition of [125I]ChTX binding", "result": 0.0027, "unit": "nM"},
      {"measurement": "effect on activation and proliferation mediated by Ca2+-dependent pathways", "setting": "human T cells", "result": "prevent activation and proliferation"},
      {"measurement": "effect on membrane potential of human T cells", "setting": "human T cells", "result": "depolarize human T cells"}
    ]}
  ]
}
